In brackets after ≈: the same amount, converted by molar mass.
Tests used:
Hepatitis C virus [1] = assay: Antiviral activity against Hepatitis C virus genotype 1b by cell-based assay; assay type: functional, organism-based, Hepacivirus hominis
Hepatitis C virus [2] = assay: Antiviral activity against Hepatitis C virus genotype 1a by cell-based assay; assay type: functional, organism-based, Hepacivirus hominis; conditions: subtype 1a
[3] = Plasma concentration in rat at 10 mg/kg, po after 6 hrs; assay type: ADME, organism-based; parameters: dose 10 mg/kg, route oral
Hepatitis C virus [4] = assay: Antiviral activity against Hepatitis C virus H77c genotype 1a infected in human HuH7 cells after 3 days by FRET assay; assay type: functional, organism-based, Hepacivirus hominis; conditions: genotype 1a H77, Huh-7, 72 h
[5] = biological target: Voltage-gated inwardly rectifying potassium channel KCNH2 (Homo sapiens, UniProt Q12809); assay: Inhibition of human ERG by fluorescence-based thallium flux assay
Cytochrome P450 2D6 = Cytochrome P450 2D6 (Homo sapiens, UniProt P10635); assay: Inhibition of CYP2D6 in human liver microsomes after 30 mins in presence of NADPH; assay type: ADME
Cytochrome P450 2C9 = Cytochrome P450 2C9 (Homo sapiens, UniProt P11712); assay: Inhibition of CYP2C9 in human liver microsomes after 30 mins in presence of NADPH; assay type: ADME
Liver microsome [6] = conditions: human, microsomes
[7] = Clearance in rat at 5 mg/kg, iv and 10 mg/kg, po; assay type: ADME, organism-based; conditions: in vivo
Cytochrome P450 3A4 = Cytochrome P450 3A4 (Homo sapiens, UniProt P08684); assay: Inhibition of CYP3A4 in human liver microsomes using benzyloxyresorufin as substrate after 30 mins in presence of NADPH; assay type: ADME
Cytochrome P450 1A2 = biological target: T1, Cytochrome P450 1A2 (Homo sapiens, UniProt P05177); assay: Inhibition of CYP1A2 in human liver microsomes after 30 mins in presence of NADPH; assay type: ADME
T1 sequence (P05177 whole entry): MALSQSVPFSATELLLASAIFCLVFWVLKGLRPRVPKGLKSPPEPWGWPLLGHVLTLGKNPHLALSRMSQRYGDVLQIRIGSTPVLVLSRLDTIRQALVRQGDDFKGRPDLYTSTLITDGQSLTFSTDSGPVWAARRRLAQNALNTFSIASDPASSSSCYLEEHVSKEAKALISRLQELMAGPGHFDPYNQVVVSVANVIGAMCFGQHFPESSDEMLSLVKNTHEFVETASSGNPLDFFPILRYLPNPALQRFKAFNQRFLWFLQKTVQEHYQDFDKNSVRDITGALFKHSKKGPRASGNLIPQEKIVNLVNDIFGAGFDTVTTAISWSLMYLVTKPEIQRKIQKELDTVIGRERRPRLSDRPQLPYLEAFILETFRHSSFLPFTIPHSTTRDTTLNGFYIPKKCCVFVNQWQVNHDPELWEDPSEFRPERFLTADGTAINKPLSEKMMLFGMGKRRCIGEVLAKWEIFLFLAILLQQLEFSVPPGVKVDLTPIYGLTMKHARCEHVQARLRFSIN

Hepatitis C virus [8] = assay: Antiviral activity against Hepatitis C virus Con1 genotype 1b infected in human HuH7 cells after 3 days by FRET assay in presence of 40% human serum; assay type: functional, organism-based, Hepacivirus hominis; conditions: isolate Con1, Huh-7, 72 h
[9] = Drug uptake in rat liver at 10 mg/kg, po after 6 hrs; assay type: ADME, organism-based; parameters: dose 10 mg/kg, route oral; conditions: read-out: Drug uptake
[10] = biological target: T2, Nuclear receptor subfamily 1 group I member 2 (Homo sapiens, UniProt O75469); assay: Transactivation of human PXR expressed in human HepG2 cells by luciferase reporter gene assay; assay type: cell-based
T2 sequence (O75469 whole entry): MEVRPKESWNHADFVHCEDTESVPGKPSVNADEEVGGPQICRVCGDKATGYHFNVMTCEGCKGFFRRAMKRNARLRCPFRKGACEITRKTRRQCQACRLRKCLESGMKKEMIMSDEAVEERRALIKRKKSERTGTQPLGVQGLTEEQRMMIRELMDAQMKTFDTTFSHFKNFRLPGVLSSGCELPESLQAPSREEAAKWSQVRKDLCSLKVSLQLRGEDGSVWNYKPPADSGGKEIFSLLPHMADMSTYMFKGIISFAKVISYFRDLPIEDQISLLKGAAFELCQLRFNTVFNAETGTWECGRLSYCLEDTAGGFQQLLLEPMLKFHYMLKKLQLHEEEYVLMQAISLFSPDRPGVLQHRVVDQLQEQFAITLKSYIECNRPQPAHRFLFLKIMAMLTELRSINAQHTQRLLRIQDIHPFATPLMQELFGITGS

[11] = AUC (0 to 6 hrs) in rat at 10 mg/kg, po; assay type: ADME, organism-based; parameters: time < 6 hr, dose 10 mg/kg, route oral; conditions: plasma
[12] = AUC (0 to 6 hrs) in rat at 5 mg/kg, iv; assay type: ADME, organism-based; parameters: time < 6 hr, dose 5 mg/kg, route intravenous; conditions: plasma
Hepatitis C virus [13] = assay: Antiviral activity against Hepatitis C virus Con1 genotype 1b infected in human HuH7 cells after 3 days by FRET assay; assay type: functional, organism-based, Hepacivirus hominis; conditions: isolate Con1, Huh-7, 72 h
[14] = Drug uptake in rat liver at 5 mg/kg, iv after 6 hrs; assay type: ADME, organism-based; parameters: dose 5 mg/kg, route intravenous; conditions: read-out: Drug uptake
Liver microsome [15] = conditions: rat, microsomes
[16] = biological target: Sodium channel protein type 5 subunit alpha (Homo sapiens, UniProt Q14524); assay: Inhibition of human NaV1.5 expressed in HEK293 cells by fluorescence-based thallium flux assay; assay type: cell-based
[17] = Plasma concentration in rat at 5 mg/kg, iv after 6 hrs; assay type: ADME, organism-based; parameters: dose 5 mg/kg, route intravenous
HepG2 = assay: Cytotoxicity against human HepG2 cells; assay type: cell-based
[18] = Solubility of the compound in amorphous form in phosphate buffer at pH 6.5; assay type: physicochemical
[19] = Cytotoxicity against human HuH7 cells by Alamar blue assay; assay type: cell-based; conditions: Huh-7 cells
[20] = Permeability of the compound at pH 7.4 by PAMPA; assay type: physicochemical; conditions: read-out: permeability
Cytochrome P450 2C19 = Cytochrome P450 2C19 (Homo sapiens, UniProt P33261); assay: Inhibition of CYP2C19 in human liver microsomes after 30 mins in presence of NADPH; assay type: ADME
Sequence of Cytochrome P450 2C19 (P33261 whole entry): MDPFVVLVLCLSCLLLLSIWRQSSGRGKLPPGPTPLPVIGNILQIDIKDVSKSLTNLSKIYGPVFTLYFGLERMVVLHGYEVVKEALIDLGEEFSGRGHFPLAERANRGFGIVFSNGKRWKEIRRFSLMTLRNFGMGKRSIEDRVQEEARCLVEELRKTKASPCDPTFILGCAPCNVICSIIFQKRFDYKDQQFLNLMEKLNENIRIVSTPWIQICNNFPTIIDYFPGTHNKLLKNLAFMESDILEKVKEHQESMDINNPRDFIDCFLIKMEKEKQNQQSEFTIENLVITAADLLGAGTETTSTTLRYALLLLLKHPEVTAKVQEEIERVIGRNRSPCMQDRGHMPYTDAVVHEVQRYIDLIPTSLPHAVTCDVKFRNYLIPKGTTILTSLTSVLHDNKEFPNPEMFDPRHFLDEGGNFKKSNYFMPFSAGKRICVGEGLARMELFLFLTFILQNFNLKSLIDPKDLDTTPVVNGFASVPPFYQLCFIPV

Sequence of Sodium channel protein type 5 subunit alpha (Q14524 whole entry): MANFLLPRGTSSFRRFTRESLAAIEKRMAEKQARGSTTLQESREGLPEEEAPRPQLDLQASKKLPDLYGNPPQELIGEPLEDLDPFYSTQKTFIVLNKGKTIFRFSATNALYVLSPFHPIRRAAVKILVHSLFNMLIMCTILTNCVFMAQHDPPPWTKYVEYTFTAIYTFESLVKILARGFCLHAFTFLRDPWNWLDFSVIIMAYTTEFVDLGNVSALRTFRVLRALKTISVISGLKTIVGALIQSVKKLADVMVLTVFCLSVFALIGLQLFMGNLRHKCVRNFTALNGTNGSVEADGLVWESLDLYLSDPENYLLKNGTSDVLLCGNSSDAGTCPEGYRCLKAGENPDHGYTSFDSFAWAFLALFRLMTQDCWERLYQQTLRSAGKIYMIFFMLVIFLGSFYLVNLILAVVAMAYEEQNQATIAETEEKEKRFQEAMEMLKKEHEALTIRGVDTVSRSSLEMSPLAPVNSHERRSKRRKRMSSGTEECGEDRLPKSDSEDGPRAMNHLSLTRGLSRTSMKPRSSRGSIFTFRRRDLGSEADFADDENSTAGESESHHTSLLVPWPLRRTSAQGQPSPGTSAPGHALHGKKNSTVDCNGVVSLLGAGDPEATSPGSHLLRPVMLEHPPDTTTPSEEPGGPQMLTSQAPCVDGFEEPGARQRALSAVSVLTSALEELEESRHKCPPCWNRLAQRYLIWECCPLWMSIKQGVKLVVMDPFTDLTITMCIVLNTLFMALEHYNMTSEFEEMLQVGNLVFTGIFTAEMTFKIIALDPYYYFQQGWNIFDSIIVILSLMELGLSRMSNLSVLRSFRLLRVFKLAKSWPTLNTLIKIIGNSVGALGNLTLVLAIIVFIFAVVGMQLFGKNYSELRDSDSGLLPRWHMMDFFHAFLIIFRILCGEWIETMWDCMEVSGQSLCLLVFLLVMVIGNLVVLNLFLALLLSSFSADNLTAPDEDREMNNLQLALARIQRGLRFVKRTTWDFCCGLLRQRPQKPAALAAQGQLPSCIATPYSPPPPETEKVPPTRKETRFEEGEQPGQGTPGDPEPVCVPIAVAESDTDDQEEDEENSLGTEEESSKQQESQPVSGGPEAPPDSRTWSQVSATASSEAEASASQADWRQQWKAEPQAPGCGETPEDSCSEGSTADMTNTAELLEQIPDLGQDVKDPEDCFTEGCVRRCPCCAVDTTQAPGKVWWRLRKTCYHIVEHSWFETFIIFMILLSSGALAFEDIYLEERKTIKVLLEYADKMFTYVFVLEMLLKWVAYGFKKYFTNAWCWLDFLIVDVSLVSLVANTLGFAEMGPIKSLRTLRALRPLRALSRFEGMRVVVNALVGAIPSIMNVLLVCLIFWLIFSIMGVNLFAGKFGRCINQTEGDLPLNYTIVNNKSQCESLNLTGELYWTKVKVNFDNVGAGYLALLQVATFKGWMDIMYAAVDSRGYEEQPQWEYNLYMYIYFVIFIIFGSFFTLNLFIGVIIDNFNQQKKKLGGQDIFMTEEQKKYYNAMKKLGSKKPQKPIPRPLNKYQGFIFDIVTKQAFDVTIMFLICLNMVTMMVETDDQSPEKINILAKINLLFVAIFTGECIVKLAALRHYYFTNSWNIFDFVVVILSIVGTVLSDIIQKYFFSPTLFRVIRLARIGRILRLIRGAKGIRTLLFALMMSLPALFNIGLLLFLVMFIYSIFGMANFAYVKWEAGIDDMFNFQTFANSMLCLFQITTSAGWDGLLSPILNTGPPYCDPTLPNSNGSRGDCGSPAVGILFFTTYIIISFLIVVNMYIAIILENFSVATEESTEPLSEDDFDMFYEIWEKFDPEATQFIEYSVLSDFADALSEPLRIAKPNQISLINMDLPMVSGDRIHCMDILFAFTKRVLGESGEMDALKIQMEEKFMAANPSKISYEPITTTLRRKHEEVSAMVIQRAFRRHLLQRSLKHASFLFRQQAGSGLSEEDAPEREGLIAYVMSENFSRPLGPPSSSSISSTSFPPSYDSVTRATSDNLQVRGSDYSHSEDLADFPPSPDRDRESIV
Sequence of Cytochrome P450 2D6 (P10635 whole entry): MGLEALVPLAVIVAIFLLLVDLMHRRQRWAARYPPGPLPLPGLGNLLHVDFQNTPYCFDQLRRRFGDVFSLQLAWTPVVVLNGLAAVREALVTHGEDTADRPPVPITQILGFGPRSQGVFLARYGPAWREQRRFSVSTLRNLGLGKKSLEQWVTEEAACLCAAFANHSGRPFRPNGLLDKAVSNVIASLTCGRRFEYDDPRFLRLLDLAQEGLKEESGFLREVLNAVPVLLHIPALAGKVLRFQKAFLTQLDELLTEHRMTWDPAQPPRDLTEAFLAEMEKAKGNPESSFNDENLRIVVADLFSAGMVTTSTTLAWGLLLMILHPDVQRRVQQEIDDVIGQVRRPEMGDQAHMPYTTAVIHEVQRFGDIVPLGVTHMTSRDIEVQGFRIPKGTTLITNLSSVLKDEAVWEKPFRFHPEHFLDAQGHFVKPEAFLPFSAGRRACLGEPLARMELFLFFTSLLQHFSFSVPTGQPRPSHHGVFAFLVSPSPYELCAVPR
Sequence of Voltage-gated inwardly rectifying potassium channel KCNH2 (Q12809 whole entry): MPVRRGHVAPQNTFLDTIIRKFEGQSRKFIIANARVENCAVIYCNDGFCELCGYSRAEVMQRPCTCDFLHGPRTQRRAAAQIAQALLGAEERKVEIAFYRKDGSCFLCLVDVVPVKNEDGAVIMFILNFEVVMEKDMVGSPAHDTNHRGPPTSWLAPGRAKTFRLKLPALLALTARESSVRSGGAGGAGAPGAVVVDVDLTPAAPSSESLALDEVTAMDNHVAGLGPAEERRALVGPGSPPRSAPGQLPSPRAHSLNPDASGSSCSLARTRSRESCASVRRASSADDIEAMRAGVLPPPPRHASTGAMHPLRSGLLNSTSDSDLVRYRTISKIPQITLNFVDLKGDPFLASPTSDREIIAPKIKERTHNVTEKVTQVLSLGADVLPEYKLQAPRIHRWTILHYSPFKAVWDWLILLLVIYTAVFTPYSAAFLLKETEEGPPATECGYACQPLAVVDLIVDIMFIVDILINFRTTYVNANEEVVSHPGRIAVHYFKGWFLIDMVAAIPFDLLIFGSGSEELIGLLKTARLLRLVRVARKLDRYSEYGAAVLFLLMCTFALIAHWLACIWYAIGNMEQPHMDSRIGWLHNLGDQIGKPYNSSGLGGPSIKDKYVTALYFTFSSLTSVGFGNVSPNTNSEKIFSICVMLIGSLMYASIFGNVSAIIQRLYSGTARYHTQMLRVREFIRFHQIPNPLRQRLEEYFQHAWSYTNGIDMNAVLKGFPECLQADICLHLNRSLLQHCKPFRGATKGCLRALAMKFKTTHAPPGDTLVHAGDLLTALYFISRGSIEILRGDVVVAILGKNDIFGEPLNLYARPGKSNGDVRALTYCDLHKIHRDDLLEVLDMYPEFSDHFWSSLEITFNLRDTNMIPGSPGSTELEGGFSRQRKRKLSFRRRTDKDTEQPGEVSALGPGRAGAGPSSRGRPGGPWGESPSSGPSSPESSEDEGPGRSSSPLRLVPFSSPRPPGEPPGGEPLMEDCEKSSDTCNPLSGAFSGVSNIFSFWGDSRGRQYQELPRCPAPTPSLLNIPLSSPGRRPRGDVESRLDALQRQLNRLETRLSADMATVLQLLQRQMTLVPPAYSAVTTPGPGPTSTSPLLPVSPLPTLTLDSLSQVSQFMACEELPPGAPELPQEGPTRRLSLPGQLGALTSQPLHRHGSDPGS
Sequence of Cytochrome P450 3A4 (P08684 whole entry): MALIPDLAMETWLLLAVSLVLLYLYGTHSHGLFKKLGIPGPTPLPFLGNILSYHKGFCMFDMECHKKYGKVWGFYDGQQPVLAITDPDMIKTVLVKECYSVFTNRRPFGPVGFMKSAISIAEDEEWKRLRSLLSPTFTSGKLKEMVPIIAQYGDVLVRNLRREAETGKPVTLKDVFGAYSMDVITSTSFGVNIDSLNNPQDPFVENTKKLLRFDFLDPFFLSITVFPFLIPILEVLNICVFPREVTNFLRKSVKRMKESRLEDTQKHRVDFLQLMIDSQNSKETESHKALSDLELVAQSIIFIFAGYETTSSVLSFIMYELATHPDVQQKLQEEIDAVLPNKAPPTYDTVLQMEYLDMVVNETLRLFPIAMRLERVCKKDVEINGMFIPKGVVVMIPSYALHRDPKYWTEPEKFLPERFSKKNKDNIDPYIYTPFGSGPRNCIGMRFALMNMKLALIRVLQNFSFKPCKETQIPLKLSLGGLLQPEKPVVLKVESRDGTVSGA

In the case of Cn1c(C2(NC(=O)c3ccc4c(C5CCCC5)c(-c5ncc(Br)cn5)n(C)c4c3)CCC2)nc2ccc(/C=C/C(=O)O)cc21 [DELEOBUVIR], the EC50 (Hepatitis C virus [1]) is reported as 0.017 µM and the EC50 (Hepatitis C virus [2]) is reported as 0.043 µM.

In the case of COc1ccc2c(c1)[C@@H]1C[C@]1(C(=O)N1C3CC1CN(C)C3)Cn1c-2c(C2CCCCC2)c2ccc(C(=O)NS(=O)(=O)N(C)C)cc21, the concentration at 6 h [3] is reported as 0.44 µM, the EC50 (Hepatitis C virus [4]) is reported as 0.006 µM and the EC50 [5] is reported as 20 µM. For the same compound, the EC50 (Cytochrome P450 2D6) was > 40 µM, the EC50 (Cytochrome P450 2C9) was > 40 µM and the Stability (Liver microsome [6]) was 98%. For the same compound, the clearance [7] was 9 mL/min/kg, the EC50 (Cytochrome P450 3A4) was 14 µM and the EC50 (Cytochrome P450 1A2) was > 40 µM. The EC50 (Hepatitis C virus [8]) was 0.028 µM, the concentration at 6 h [9] was 14.3 µM and the EC50 [10] was > 50 µM. It also gave an AUC(0-t) at 6 h [11] of 4.93 µM·h, an AUC(0-t) at 6 h [12] of 11.2 µM·h and an EC50 (Hepatitis C virus [13]) of 0.005 µM. The concentration at 6 h [14] was 17.5 µM, the Stability (Liver microsome [15]) was 98% and the EC50 [16] was 30 µM. It also gave a concentration at 6 h [17] of 0.409 µM, an EC50 (HepG2) of 25 µM and a solubility [18] of 760 µg/mL (≈ 1180 µM). The CC50 [19] was 13 µM, the Papp [20] was 43 ×10⁻⁶ cm/s and the EC50 (Cytochrome P450 2C19) was > 40 µM.
